# Legend:
# [1] = HPLC purity of bendamustine HCl after sterilization; format: physicochemical
# Description: (§1) 100 mg each of bendamustine HCl was weighed into a 20 mL tubing vial, a 20 mL amber vial, and a 20 mL clear vial. Rubber stoppers were inserted and aluminum caps crimped on. The vials were passed through a gamma irradiation line and received doses in the range of 29.3 kGy to about 32.3 kGy. Purity and sterility testing was then performed.
# as §1, with “an electron beam” for “a gamma”, “a dose” for “doses in the range”, “of” for “of 29.3 kGy to”, “30” for “32.3”
# To each 10 mg of bendamustine HCl, sterilized according to the methods described above, was added 10 mL N-methyl-2-pyrrolidone (NMP). A reference standard of bendamustine HCl was prepared in NMP having a concentration of 1 mg/mL. HPLC was performed according to conventional methods.
# [2] = heating; background statement; cited from earlier work
smiles,measurement,setting,value
"Cl.Cn1c(CCCC(=O)O)nc2cc(N(CCCl)CCCl)ccc21 [bendamustine HCl, Bendamustine hydrochloride]",HPLC purity (% area),"[1]; after E-beam irradiation, about 30 kGy, 100 mg solid in amber vial",99.70 % area
same,HPLC purity (% area),"[1]; after E-beam irradiation, about 30 kGy, 100 mg solid in clear vial",99.70 % area
same,HPLC purity (% area),"[1]; after gamma irradiation, 29.3 kGy to about 32.3 kGy, 100 mg solid in amber vial",99.70 % area
same,HPLC purity (% area),"[1]; after gamma irradiation, 29.3 kGy to about 32.3 kGy, 100 mg solid in clear vial",99.64 % area
same,Temperature at which the solid chars when heated,[2],160 °C
